Results published in patent publication US8198325B2, “Unsaturated alkyl esters of 5-aminolevulinic acid, their preparation and their use” (Industry Foundation of Chonnam National University, priority 2006, dated 2012).

How the values were obtained:
[1] = tested on: Squamous cell carcinoma (A431); assay: Cytotoxicity test (cell survival), MTT assay, A431; type: cell-based; settings: 24 hours
Description: (§1) 3. Cytotoxicity Test (Cell Survival Test)
(§2) Cytotoxicity was conducted through an MTT assay (Chemicon, Serologicals Corporation, USA) as follows.
(§3) Cells were seeded at a density of 3×10^4 cells/well in 96-well plates (Nunc Do, Denmark).
(§4) When the cells were at a confluence of about 60˜70%, 24 hours after seeding, the media was exchanged for 100 μl of fresh, serum-free media containing various respective concentrations of ALA or ALA-ester, after which the cells were incubated for an additional 24 hours.
(§5) An MTT solution (0.5 mg/mL) was added in an amount of […] to each well, followed by incubation for 4 hours to form formazan crystals. A color-developing solution (isopropanol with 0.04 N HCl) was added in an amount of […] per well to solubilize the formazan crystals.
(§6) The plates were measured for absorbance at 570 nm using an ELISA reader (EMAX, Molecular Device, USA).
(3) Squamous Cell Carcinoma (A431)

[2] = tested on: Human epidermal keratinocyte (HEK); assay: Cytotoxicity test (cell survival), MTT assay, HEK; type: cell-based; settings: 24 hours; for MTT absorbance (OD): 570 nm; for Cell survival Avg (%) ± SD (%): Table 3
Description: as §1, §2, §3, §4, §5, §6
(1) Human Epidermal Keratinocyte (HEK)
Cell survival of the human epidermal keratinocytes treated with ALA esters of the present invention and with ALA was compared. The results are summarized in Tables 1 and 2, which are represented in different manners depending on the measurements.

A431 cells = assay: Fluorescence spectroscopy of PpIX synthesis in A431 cells (FIG. 1); type: cell-based; settings: 4 hours incubation, excitation 405 nm, emission 605 nm
Description: 4. Fluorescence Spectroscopy
The synthesis of PpIX, induced by ALA and unsaturated alkyl esters of ALA in cells and skin tissues, was quantified using fluorescence spectroscopy.
The intensity of PpIX was measured on a fluorescence spectrophotometer (Uvikon, model 943) with excitation at 408 nm.
Each cell line was plated at a density of 2×10^5 cells in a 10 cm^2-dish (Falcon), and when the cells reached a confluent state of 70˜80%, serum-free media containing various concentrations (0.001˜1 mM) of ALA or ALA esters was added to the cells, followed by incubation for 4 hours.
After being washed once with PBS, the cells were detached with a 50% methanol solution containing 1M […] (HClO4) and scraped off using a Costar cell scraper.
The cells thus harvested were incubated for 5 min and centrifuged.
The fluorescence of the supernatant thus obtained was determined using a spectrofluorometer with excitation at 405 nm and emission at 605 nm.
The results are graphed in FIGS. 1 and 2.

[3] = tested on: skin of ICR mice (epidermis, sebaceous gland); assay: Cell death in skin tissue after ointment and LED irradiation, H&E (FIGS. 9, 10); type: in vivo
Description: Ointments comprising ALA or the ALA esters of the present invention at various concentrations (5˜15%) were applied in a predetermined amount ([…]) to the back of shaved ICR mice.
1 and 4 hours after the application, the back was irradiated with LED visible light (dose 25 J/cm^2).
24, 48 and 72 hours after the irradiation, skin samples were taken from the back of the mice, stained with hematoxylin-eosin (H&E) and observed for cell death.

[4] = tested on: Human dermal fibroblast (hF); assay: Cytotoxicity test (cell survival), MTT assay, hF; type: cell-based; settings: 24 hours
Description: as §1, §2, §3, §4, §5, §6
(2) Human Dermal Fibroblast (hF)

[5] = tested on: Malignant melanoma (TMX 13); assay: Cytotoxicity test (cell survival), MTT assay, TXM 13; type: cell-based; settings: 24 hours
Description: as §1, §2, §3, §4, §5, §6
(4) Malignant Melanoma (TMX 13)

In the case of COC(=O)CCC(=O)CN [ALA-1, 5-Aminolevulinic acid methyl ester, reference compound], the “Cell survival Avg (%) ± SD (%)” value ([1]; A431, 0.01 mM) is reported as 101.03 ± 0.71%, the “Cell survival Avg (%) ± SD (%)” value ([1]; A431, 0.05 mM) is reported as 103.06 ± 1.05% and the “Cell survival Avg (%) ± SD (%)” value ([1]; A431, 0.5 mM) is reported as 101.75 ± 3.52%. For the same compound, the “Cell survival Avg (%) ± SD (%)” value ([1]; A431, 1 mM) was 101.45 ± 1.54%, the “Cell survival Avg (%) ± SD (%)” value ([1]; A431, 2 mM) was 98.4 ± 1.2% and the “MTT absorbance (OD)” value ([2]; 0.01 mM) was 2.952 OD. The “Cell survival Avg (%) ± SD (%)” value ([2]; 0.01 mM) was 116.69 ± 1%, the “MTT absorbance (OD)” value ([2]; 0.05 mM) was 3.482 OD and the “Cell survival Avg (%) ± SD (%)” value ([2]; 0.05 mM) was 94.01 ± 0.71%. For the same compound, the “MTT absorbance (OD)” value ([2]; 0.1 mM) was 3.313 OD, the “Cell survival Avg (%) ± SD (%)” value ([2]; 0.1 mM) was 125.58 ± 1.05% and the “MTT absorbance (OD)” value ([2]; 0.5 mM) was 3.421 OD. For the same compound, the “Cell survival Avg (%) ± SD (%)” value ([2]; 0.5 mM) was 88.14 ± 0.95%, the “MTT absorbance (OD)” value ([2]; 1 mM) was 3.435 OD and the “Cell survival Avg (%) ± SD (%)” value ([2]; 1 mM) was 72.02 ± 3.52%. The “MTT absorbance (OD)” value ([2]; 2 mM) was 3.093 OD, the “Cell survival Avg (%) ± SD (%)” value ([2]; 2 mM) was 83.69 ± 1.54% and the “MTT absorbance (OD)” value ([2]; 5 mM) was 2.398 OD. The activity at 10 µM ([2]; Homo sapiens, HEK001, 0.01 mM, Table 2, read-out: Cell survival (% of control C, in brackets)) was 88.8%, the activity at 2000 µM ([2]; Homo sapiens, HEK2, 2 mM, Table 2, read-out: Cell survival (% of control C, in brackets)) was 93% and the activity at 50 µM ([2]; Homo sapiens, Keratinocyte, 0.05 mM, Table 2, read-out: Cell survival (% of control C, in brackets)) was 104%. The activity at 100 µM ([2]; Homo sapiens, Keratinocyte, 0.1 mM, Table 2, read-out: Cell survival (% of control C, in brackets)) was 99.6%, the activity at 500 µM ([2]; Homo sapiens, Keratinocyte, 0.5 mM, Table 2, read-out: Cell survival (% of control C, in brackets)) was 103% and the activity at 1000 µM ([2]; Homo sapiens, Keratinocyte, 1 mM, Table 2, read-out: Cell survival (% of control C, in brackets)) was 103%. The activity at 5000 µM ([2]; Homo sapiens, Keratinocyte, 5 mM, Table 2, read-out: Cell survival (% of control C, in brackets)) was 69%, the “PpIX synthesis compared with ALA” value (A431 cells) was “greater PpIX synthesis in A431 cells than did ALA” and the “Sebaceous gland morphology after irradiation” value ([3]; 24 hours after visible light 25 J/cm^2, FIG. 10) was “destroyed partially or wholly”. The “Epidermis histology (H&E) after irradiation” value ([3]; 48 hours after visible light 25 J/cm^2, FIGS. 9B and 9C) was “both necrosis and rejuvenation”, the “Cell survival Avg (%) ± SD (%)” value ([4]; 0.01 mM) was 110.33 ± 15.01% and the “Cell survival Avg (%) ± SD (%)” value ([4]; 0.05 mM) was 116.86 ± 17.63%. The “Cell survival Avg (%) ± SD (%)” value ([4]; 0.1 mM) was 110.44 ± 17.98%, the “Cell survival Avg (%) ± SD (%)” value ([4]; 0.5 mM) was 113 ± 22.58% and the “Cell survival Avg (%) ± SD (%)” value ([4]; 1 mM) was 120.48 ± 10.91%. For the same compound, the “Cell survival Avg (%) ± SD (%)” value ([4]; 2 mM) was 87.65 ± 14.77%, the “Cell survival Avg ± SD (%)” value ([5]; TXM 13, 0.01 mM) was 104.69 ± 6.64% and the “Cell survival Avg ± SD (%)” value ([5]; TXM 13, 0.05 mM) was 100.34 ± 4.39%. For the same compound, the “Cell survival Avg ± SD (%)” value ([5]; TXM 13, 0.1 mM) was 87.37 ± 8.13%, the “Cell survival Avg ± SD (%)” value ([5]; TXM 13, 0.5 mM) was 64.59 ± 3.95% and the “Cell survival Avg ± SD (%)” value ([5]; TXM 13, 1 mM) was 69.86 ± 8.83%. The “Cell survival Avg ± SD (%)” value ([5]; TXM 13, 2 mM) was 69.94 ± 13.42%.
